Measured values taken from the supplement of paper PMC10307832.

Key:
Assay in all cases: relative viability (nuclei count vs DMSO), 5 days (fraction); higher = more cells survive
[1] = test system: RERF-LC-KJ
Procedure, shortened: (§1)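 Five library-drug doses in √10 steps were combined with a fixed anchor-drug dose, or a single drug was given alone, by pin tool to lung cancer cell lines in 1536-well plates the day after seeding. Nuclei were stained and counted after 5 days. Relative viability is the nuclei count in treated wells over that in vehicle wells, taken as the median of duplicate plates.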

[2] = test system: HCC-827
Procedure, shortened: as §1

[3] = test system: EKVX
Procedure, shortened: as §1

[4] = test system: LU99A
Procedure, shortened: as §1

[5] = test system: NCI-H2126
Procedure, shortened: as §1

[6] = test system: LCLC-103H
Procedure, shortened: as §1

[7] = test system: SW 1573
Procedure, shortened: as §1

[8] = test system: ChaGo-K-1
Procedure, shortened: as §1

[9] = test system: LK-2
Procedure, shortened: as §1

[10] = test system: NCI-H1666
Procedure, shortened: as §1

[11] = test system: NCI-H1975
Procedure, shortened: as §1

[12] = test system: SW 900
Procedure, shortened: as §1

[13] = test system: PC-14
Procedure, shortened: as §1

[14] = test system: NCI-H2405
Procedure, shortened: as §1

[15] = test system: EMC-BAC-2
Procedure, shortened: as §1

[16] = test system: EPLC-272H
Procedure, shortened: as §1

[17] = test system: SK-LU-1
Procedure, shortened: as §1

[18] = test system: HCC-78
Procedure, shortened: as §1

[19] = test system: NCI-H23
Procedure, shortened: as §1

[20] = test system: NCI-H322M
Procedure, shortened: as §1

[21] = test system: NCI-H2342
Procedure, shortened: as §1

For `Cc1sc2c(c1C)C(c1ccc(Cl)cc1)=N[C@@H](CC(=O)OC(C)(C)C)c1nnc(C)n1-2` [JQ1] + CC(=O)c1c(C)c2cnc(Nc3ccc(N4CCNCC4)cn3)nc2n(C2CCCC2)c1=O [Palbociclib] (partner 0.5 µM), the relative viability ([1]; first compound 0.04 µM) was 1.13, the relative viability ([1]; first compound 0.1265 µM) was 0.868 and the relative viability ([1]; first compound 0.4 µM) was 0.887. It also gave a relative viability ([1]; first compound 1.265 µM) of 0.254, a relative viability ([1]; first compound 4 µM) of 0.246 and a relative viability ([2]; first compound 0.04 µM) of 0.528. The relative viability ([2]; first compound 0.1265 µM) was 0.388, the relative viability ([2]; first compound 1.265 µM) was 0.279 and the relative viability ([2]; first compound 4 µM) was 0.252. It also gave a relative viability ([3]; first compound 0.04 µM) of 0.429, a relative viability ([3]; first compound 0.1265 µM) of 0.34 and a relative viability ([3]; first compound 0.4 µM) of 0.372. The relative viability ([3]; first compound 1.265 µM) was 0.368, the relative viability ([3]; first compound 4 µM) was 0.314 and the relative viability ([4]; first compound 0.04 µM) was 0.465. The relative viability ([4]; first compound 0.4 µM) was 0.287, the relative viability ([4]; first compound 1.265 µM) was 0.185 and the relative viability ([4]; first compound 4 µM) was 0.176. For the same compound, the relative viability ([5]; first compound 0.04 µM) was 0.345, the relative viability ([5]; first compound 0.1265 µM) was 0.401 and the relative viability ([5]; first compound 0.4 µM) was 0.368. For the same compound, the relative viability ([5]; first compound 1.265 µM) was 0.348, the relative viability ([5]; first compound 4 µM) was 0.37 and the relative viability ([6]; first compound 0.04 µM) was 0.46. For the same compound, the relative viability ([6]; first compound 0.1265 µM) was 0.438, the relative viability ([6]; first compound 0.4 µM) was 0.42 and the relative viability ([6]; first compound 1.265 µM) was 0.419. It also gave a relative viability ([6]; first compound 4 µM) of 0.328, a relative viability ([7]; first compound 0.04 µM) of 0.372 and a relative viability ([7]; first compound 0.1265 µM) of 0.274. The relative viability ([7]; first compound 0.4 µM) was 0.202, the relative viability ([7]; first compound 1.265 µM) was 0.129 and the relative viability ([7]; first compound 4 µM) was 0.118. For the same compound, the relative viability ([8]; first compound 0.04 µM) was 0.942, the relative viability ([8]; first compound 0.1265 µM) was 0.909 and the relative viability ([8]; first compound 0.4 µM) was 0.952. It also gave a relative viability ([8]; first compound 1.265 µM) of 0.674, a relative viability ([8]; first compound 4 µM) of 0.525 and a relative viability ([9]; first compound 0.04 µM) of 0.718. The relative viability ([9]; first compound 0.1265 µM) was 0.702, the relative viability ([9]; first compound 0.4 µM) was 0.339 and the relative viability ([9]; first compound 1.265 µM) was 0.151. The relative viability ([9]; first compound 4 µM) was 0.151, the relative viability ([10]; first compound 0.04 µM) was 0.646 and the relative viability ([10]; first compound 0.1265 µM) was 0.576. The relative viability ([10]; first compound 0.4 µM) was 0.591, the relative viability ([10]; first compound 1.265 µM) was 0.647 and the relative viability ([10]; first compound 4 µM) was 0.568. For the same compound, the relative viability ([11]; first compound 0.04 µM) was 0.607, the relative viability ([11]; first compound 0.1265 µM) was 0.38 and the relative viability ([11]; first compound 0.4 µM) was 0.457. For the same compound, the relative viability ([11]; first compound 1.265 µM) was 0.287, the relative viability ([11]; first compound 4 µM) was 0.248 and the relative viability ([12]; first compound 0.04 µM) was 0.506. The relative viability ([12]; first compound 0.1265 µM) was 0.465, the relative viability ([12]; first compound 0.4 µM) was 0.318 and the relative viability ([12]; first compound 1.265 µM) was 0.289. For the same compound, the relative viability ([12]; first compound 4 µM) was 0.222, the relative viability ([13]; first compound 0.04 µM) was 0.486 and the relative viability ([13]; first compound 0.1265 µM) was 0.238. The relative viability ([13]; first compound 0.4 µM) was 0.221, the relative viability ([13]; first compound 1.265 µM) was 0.116 and the relative viability ([13]; first compound 4 µM) was 0.104. It also gave a relative viability ([14]; first compound 0.04 µM) of 0.571, a relative viability ([14]; first compound 0.4 µM) of 0.522 and a relative viability ([14]; first compound 1.265 µM) of 0.471. For the same compound, the relative viability ([14]; first compound 4 µM) was 0.311, the relative viability ([15]; first compound 0.04 µM) was 0.496 and the relative viability ([15]; first compound 0.1265 µM) was 0.441. For the same compound, the relative viability ([15]; first compound 0.4 µM) was 0.421, the relative viability ([15]; first compound 1.265 µM) was 0.332 and the relative viability ([15]; first compound 4 µM) was 0.315. The relative viability ([16]; first compound 0.04 µM) was 0.315, the relative viability ([16]; first compound 0.1265 µM) was 0.252 and the relative viability ([16]; first compound 0.4 µM) was 0.308. It also gave a relative viability ([16]; first compound 1.265 µM) of 0.26, a relative viability ([16]; first compound 4 µM) of 0.224 and a relative viability ([17]; first compound 0.04 µM) of 0.405. For the same compound, the relative viability ([17]; first compound 0.1265 µM) was 0.359, the relative viability ([17]; first compound 0.4 µM) was 0.35 and the relative viability ([17]; first compound 1.265 µM) was 0.282. For the same compound, the relative viability ([17]; first compound 4 µM) was 0.239, the relative viability ([18]; first compound 0.04 µM) was 0.489 and the relative viability ([18]; first compound 0.1265 µM) was 0.523. The relative viability ([18]; first compound 0.4 µM) was 0.511, the relative viability ([18]; first compound 1.265 µM) was 0.469 and the relative viability ([18]; first compound 4 µM) was 0.513. For the same compound, the relative viability ([19]; first compound 0.04 µM) was 0.597, the relative viability ([19]; first compound 0.1265 µM) was 0.48 and the relative viability ([19]; first compound 0.4 µM) was 0.275. It also gave a relative viability ([19]; first compound 1.265 µM) of 0.26, a relative viability ([19]; first compound 4 µM) of 0.215 and a relative viability ([20]; first compound 0.04 µM) of 0.477. For the same compound, the relative viability ([20]; first compound 0.1265 µM) was 0.491, the relative viability ([20]; first compound 0.4 µM) was 0.428 and the relative viability ([20]; first compound 1.265 µM) was 0.385. The relative viability ([20]; first compound 4 µM) was 0.406, the relative viability ([21]; first compound 0.04 µM) was 0.526 and the relative viability ([21]; first compound 0.1265 µM) was 0.501. It also gave a relative viability ([21]; first compound 0.4 µM) of 0.535, a relative viability ([21]; first compound 1.265 µM) of 0.574 and a relative viability ([21]; first compound 4 µM) of 0.538.
